In ChEMBL document CHEMBL1132097, “Fluorobenzamidrazone thrombin inhibitors: influence of fluorine on enhancing oral absorption” (Bioorg Med Chem Lett, 1999):

Columns and labels:
[1] = Absorption behavior was judged by the peak blood concentration determined after oral dose of 30 mg/kg in rats.; assay type: ADME, organism-based; design: dose 30 mg/kg, route oral; settings: rat
[2] = target: T1, Serine protease 1 (Bos taurus, UniProt P00760); assay: Inhibitory constant against bovine trypsin was determined in vitro
T1 sequence (P00760 whole entry): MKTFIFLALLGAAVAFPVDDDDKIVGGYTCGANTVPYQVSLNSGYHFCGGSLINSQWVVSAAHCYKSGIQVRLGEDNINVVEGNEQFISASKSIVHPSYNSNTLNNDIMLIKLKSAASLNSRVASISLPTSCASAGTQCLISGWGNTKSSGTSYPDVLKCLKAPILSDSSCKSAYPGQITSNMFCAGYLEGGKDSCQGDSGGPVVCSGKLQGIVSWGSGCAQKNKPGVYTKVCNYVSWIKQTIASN

[3] = Absorption behavior was judged by the area under the curve, determined after oral dose of 30 mg/kg in rats.; assay type: ADME, organism-based; design: dose 30 mg/kg, route oral; settings: rat, in vivo
[4] = target: T2, Prothrombin (Homo sapiens, UniProt P00734); assay: Inhibitory constant against human thrombin was determined in vitro
[5] = target: T1, Serine protease 1; assay: Inhibitory constant against bovine trypsin was determined in vitro.
[6] = target: T2, Prothrombin; assay: Inhibitory constant against human thrombin was determined in vitro.

SMILES	Cmax [1] [nM]	Ki [2] [nM]	AUC [3] [µM·h]	Ki [4] [nM]	Ki [5] [nM]	Ki [6] [nM]
CCCc1ccc(S(=O)(=O)N[C@@H](Cc2ccc(C(N)=NN)cc2)C(=O)N(C)C2CCCC2)cc1	1170	3500	2.23	0.2	–	–
CCCc1ccc(S(=O)(=O)N[C@@H](Cc2ccc(C(N)=NN)cc2F)C(=O)N(C)C2CCCC2)cc1	1350	–	2.68	–	4000	0.7
CN(C(=O)[C@H](Cc1ccc(C(=N)NN)cc1)NS(=O)(=O)c1ccc2ccccc2c1)C1CCCC1	1610	–	2.33	–	33000	0.4
CN(C(=O)[C@H](Cc1ccc(C(=N)NN)cc1F)NS(=O)(=O)c1ccc2c(c1)CCCC2)C1CCCC1	1030	–	1.37	–	3000	0.5
COc1ccc2cc(S(=O)(=O)N[C@@H](Cc3ccc(C(N)=NN)cc3)C(=O)N(C)C3CCCC3)ccc2c1	1130	–	2.62	–	9200	0.06
CN(C(=O)[C@H](Cc1ccc(C(N)=NN)cc1)NS(=O)(=O)c1ccc2c(c1)CCCC2)C1CCCC1	360	–	0.817	–	4600	0.1
CN(C(=O)[C@H](Cc1ccc(C(N)=NN)c(F)c1)NS(=O)(=O)c1ccc2ccccc2c1)C1CCCC1	4130	–	6.67	–	25000	5.5
CN(C(=O)[C@H](Cc1ccc(C(=N)NN)cc1F)NS(=O)(=O)c1ccc2ccccc2c1)C1CCCC1	1630	–	1.83	–	11000	2
COc1ccc2cc(S(=O)(=O)N[C@@H](Cc3ccc(C(N)=NN)cc3F)C(=O)N(C)C3CCCC3)ccc2c1	2410	–	3.28	–	2000	0.2
CCCc1ccc(S(=O)(=O)N[C@@H](Cc2ccc(C(=N)NN)c(F)c2)C(=O)N(C)C2CCCC2)cc1	2780	–	4.17	–	22000	1.8
CN(C(=O)[C@H](Cc1ccc(C(N)=NN)c(F)c1)NS(=O)(=O)c1ccc2c(c1)CCCC2)C1CCCC1	1340	–	1.63	–	25000	0.9
